Assay type in all cases: biochemical
One experiment addresses PRMT8 (Homo sapiens, UniProt Q9NR22). Briefly: radioactive assay (Reaction Biology Corp.), inhibition of PRMT8. Here is the method: (§1) Next, the inhibition activity of the library was investigated for five PRMT members from type I PRMTs.
(§2) The PRMT 4, 6 and 8 methylation assays were performed by Reaction Biology corp.

The target in another experiment is T1, PRMT1 (Homo sapiens, UniProt Q99873).
T1 construct: made in house
Nature of the experiment: SAHH-coupled fluorescence assay, inhibition of PRMT1. Here is the method:
(§3) A fluorescence-based SAHH-coupled assay was applied to study the inhibition activity of all synthesized compounds on PRMT 1 and 3.
(§4) The PRMT1 methylation assay was performed under the following conditions in a final well volume of 100 μL: 2.5 mM HEPES (pH=7.0), 25 mM NaCl, 25 μM EDTA, 50 μM TCEP, 0.01% Triton X-100, 5 μM SAHH, 0.1 μM PRMT1, 10 μM AdoMet, and 10 μM ThioGlo4. […] The fluorescence signal was monitored on a BMG CLARIOstar microplate reader with excitation at 400 nm and emission at 465 nm for 15 min. Data were processed using GraphPad Prism software 8.0.
as §1
as §4, with “A fluorescence-based SAHH-coupled assay was applied to determine the inhibition activity of all synthesized compounds on PRMT 1 and 3. The PRMT1” for “The PRMT1”, “software 8.0. All experiments were performed in duplicate.” for “software 8.0.”

A further experiment concerns the target T2, PRMT4 (Homo sapiens, UniProt Q86X55).
T2 sequence (Q86X55 1-608): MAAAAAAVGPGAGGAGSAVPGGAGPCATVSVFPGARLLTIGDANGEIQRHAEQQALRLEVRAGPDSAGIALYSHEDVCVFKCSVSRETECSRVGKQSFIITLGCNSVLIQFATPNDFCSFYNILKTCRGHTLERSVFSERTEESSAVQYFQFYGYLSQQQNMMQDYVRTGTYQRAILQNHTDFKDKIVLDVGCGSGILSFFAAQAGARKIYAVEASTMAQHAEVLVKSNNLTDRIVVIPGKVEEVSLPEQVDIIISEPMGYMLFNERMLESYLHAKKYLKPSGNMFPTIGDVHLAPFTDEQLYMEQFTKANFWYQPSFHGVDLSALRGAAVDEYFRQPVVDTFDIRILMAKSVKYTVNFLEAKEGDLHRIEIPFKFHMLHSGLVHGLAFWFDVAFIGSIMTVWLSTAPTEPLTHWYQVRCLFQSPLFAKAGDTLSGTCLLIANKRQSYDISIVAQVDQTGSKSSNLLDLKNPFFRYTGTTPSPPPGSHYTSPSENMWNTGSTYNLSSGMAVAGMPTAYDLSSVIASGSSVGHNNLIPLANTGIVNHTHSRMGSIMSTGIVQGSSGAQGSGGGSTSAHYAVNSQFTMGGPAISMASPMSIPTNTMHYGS
Nature of the experiment: radioactive assay (Reaction Biology Corp.), inhibition of PRMT4. The procedure: as §1, §2

Another experiment deals with PRMT6 (Homo sapiens, UniProt Q96LA8). Nature of the experiment: radioactive assay (Reaction Biology Corp.), inhibition of PRMT6. Here is the method:
as §1, §2

Another experiment addresses PRMT3 (Homo sapiens, UniProt O60678). Nature of the experiment: SAHH-coupled fluorescence assay, inhibition of PRMT3. On the set-up: PRMT3 (residues 211-531) was cloned into the pET28a-MHL expression vector; tag of the pET28a-MHL vector (not described); made in house; host or cells: Escherichia coli BL21(DE3). The procedure: as §3
The PRMT3 methylation assay was performed under the following conditions in a final well volume of 100 μL: 20 mM Tris (pH=7.5), 0.01% Triton X-100, 5 μM SAHH, 0.25 μM PRMT3, 30 μM AdoMet, and 15 μM ThioGlo4. […] Fluorescence was monitored on a BMG CLARIOstar microplate reader with excitation 380 nm and emission 505 nm. Data were processed by using GraphPad Prism software 8.0. All experiments were performed in duplicate.
as §1
The PRMT3 methylation assay was performed under the following conditions in a final well volume of 100 μL: 20 mM Tris (pH=7.5), 0.01% Triton X-100, 5 μM SAHH, 0.25 μM PRMT3, 30 μM AdoMet, and 15 μM ThioGlo4. […] Fluorescence was monitored on a BMG CLARIOstar microplate reader with excitation 380 nm and emission 505 nm. Data were processed by using GraphPad Prism software 8.0.

Like-named read-outs stand apart in the source and are kept apart here.

PRMT8, sequence (Q9NR22 whole entry, species assumed): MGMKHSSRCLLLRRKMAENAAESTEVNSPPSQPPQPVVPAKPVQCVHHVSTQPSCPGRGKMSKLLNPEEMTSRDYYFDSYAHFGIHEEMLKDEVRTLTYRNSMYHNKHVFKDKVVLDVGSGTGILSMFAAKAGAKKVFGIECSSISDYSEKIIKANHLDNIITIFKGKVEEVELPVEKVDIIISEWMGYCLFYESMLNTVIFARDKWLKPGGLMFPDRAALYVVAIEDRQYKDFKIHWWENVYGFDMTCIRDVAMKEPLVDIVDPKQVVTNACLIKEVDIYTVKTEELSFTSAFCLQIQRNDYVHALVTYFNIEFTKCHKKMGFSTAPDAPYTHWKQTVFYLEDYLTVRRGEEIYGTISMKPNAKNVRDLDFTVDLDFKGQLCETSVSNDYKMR
PRMT6, sequence (Q96LA8 whole entry, species assumed): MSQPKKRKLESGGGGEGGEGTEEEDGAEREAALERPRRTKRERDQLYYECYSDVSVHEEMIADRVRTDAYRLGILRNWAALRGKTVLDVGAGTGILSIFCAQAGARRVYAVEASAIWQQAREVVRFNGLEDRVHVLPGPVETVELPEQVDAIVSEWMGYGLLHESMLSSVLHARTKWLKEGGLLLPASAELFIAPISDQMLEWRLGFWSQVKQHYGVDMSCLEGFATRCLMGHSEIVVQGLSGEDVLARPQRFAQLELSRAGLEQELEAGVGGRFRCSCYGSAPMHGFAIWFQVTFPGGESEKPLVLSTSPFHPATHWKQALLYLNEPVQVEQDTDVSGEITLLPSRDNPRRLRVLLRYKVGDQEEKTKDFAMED
T1 sequence (Q99873 whole entry, species assumed): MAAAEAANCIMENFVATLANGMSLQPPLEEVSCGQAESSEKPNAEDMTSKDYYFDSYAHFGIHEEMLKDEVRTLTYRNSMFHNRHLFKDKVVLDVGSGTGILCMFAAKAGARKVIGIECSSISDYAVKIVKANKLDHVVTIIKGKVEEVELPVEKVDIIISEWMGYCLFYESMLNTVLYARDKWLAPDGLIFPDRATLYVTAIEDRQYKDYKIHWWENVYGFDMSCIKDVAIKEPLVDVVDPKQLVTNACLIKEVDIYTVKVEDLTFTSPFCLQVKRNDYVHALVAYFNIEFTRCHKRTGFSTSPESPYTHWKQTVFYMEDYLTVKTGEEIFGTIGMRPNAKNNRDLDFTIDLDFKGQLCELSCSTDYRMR
PRMT3, sequence (O60678 211-531): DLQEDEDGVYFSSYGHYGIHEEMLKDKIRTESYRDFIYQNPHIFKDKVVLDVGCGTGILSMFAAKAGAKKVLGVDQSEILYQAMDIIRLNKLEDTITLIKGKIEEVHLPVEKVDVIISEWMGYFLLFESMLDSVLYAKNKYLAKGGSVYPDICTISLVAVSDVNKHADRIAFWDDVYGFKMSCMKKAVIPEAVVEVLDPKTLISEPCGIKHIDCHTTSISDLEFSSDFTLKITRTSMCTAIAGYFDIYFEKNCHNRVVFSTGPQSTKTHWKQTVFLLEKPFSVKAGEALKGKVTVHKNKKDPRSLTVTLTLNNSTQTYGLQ

As usually defined, the inhibition is the change of the read-out against control, counted positive when it falls. As a reminder, the IC50 is the concentration that inhibits the measured activity by half. In the case of `N=C(NCCCSC[C@H]1O[C@@H](n2cnc3c(NCCCc4ccccc4)ncnc32)[C@H](O)[C@@H]1O)NCC1CCC1` [Compound 1-89], the inhibition at 10 µM at PRMT8 turned out to be 85%; against PRMT1, 80%; on PRMT4, 44%; at PRMT6, 90%; against PRMT3 it was 7%. Besides, on PRMT1 (read-out: IC50 FOR PRMT1), the IC50 was 0.59 ± 0.073 µM.

Consider `N=C(NCCCO)NCCCSC[C@H]1O[C@@H](n2cnc3c(NCCCc4ccccc4)ncnc32)[C@H](O)[C@@H]1O` [Compound 1-92], for which the inhibition at 10 µM at PRMT8 stood at 55%; against PRMT1, 64%; on PRMT4, 54%; at PRMT6, 84%; against PRMT3, 10%. In addition, the IC50 at PRMT1 (read-out: IC50 FOR PRMT1) was determined as 0.59 ± 0.073 µM.

For the molecule `N=C(NCCSC[C@H]1O[C@@H](n2cnc3c(N)ncnc32)[C@H](O)[C@@H]1O)Nc1ccccc1` [Compound 5b], the inhibition at 10 µM is 66% on PRMT8, 73% against PRMT1, 75% on PRMT6 and 1% against PRMT3. For the same molecule, the IC50 on PRMT1 (read-out: IC50[μM] | PRMT1) was 3 ± 0.16 µM.

On to `N=C(NCCCSC[C@H]1O[C@@H](n2cnc3c(N)ncnc32)[C@H](O)[C@@H]1O)NCc1ccccc1` [Compound 5e], for which the inhibition at 10 µM was determined as 97% at PRMT8; 95% on PRMT1; 97% on PRMT4; 98% on PRMT6; 61% against PRMT3. In addition, the IC50 on PRMT1 (read-out: IC50[μM] | PRMT1) amounted to 0.21 ± 0.0066 µM.

Take `N=C(NCCCSC[C@H]1O[C@@H](n2cnc3c(N)ncnc32)[C@H](O)[C@@H]1O)Nc1cccc(-c2ccoc2)c1` [Compound 6i]: the inhibition at 10 µM on PRMT8 turned out to be 98%; against PRMT1, 95%; at PRMT4 it was 100%; on PRMT6, 95%; against PRMT3 it was 46%.

Take `N=C(NCCCSC[C@H]1O[C@@H](n2cnc3c(N)ncnc32)[C@H](O)[C@@H]1O)Nc1cccc(-c2cccc([N+](=O)[O-])c2)c1` [Compound 6p]: the inhibition at 10 µM was 100% on PRMT8; 93% at PRMT1; 100% on PRMT4; 98% on PRMT6; 0% on PRMT3.

With `N=C(NCCCSC[C@H]1O[C@@H](n2cnc3c(N)ncnc32)[C@H](O)[C@@H]1O)Nc1cccc(-c2n[nH]cc2C(F)(F)F)c1` [Compound 6q], the inhibition at 10 µM at PRMT8 is 100%; against PRMT1, 99%; at PRMT4 it was 100%; on PRMT6 it was 98%; on PRMT3, 60%.

Consider `Nc1ncnc2c1ncn2[C@@H]1O[C@H](CSCCNC(=O)NCCCc2ccccc2)[C@@H](O)[C@H]1O` [Compound 7b, 1-(2-((((2S,3S,4R,5R)-5-(6-amino-9H-purin-9-yl)-3,4-dihydroxytetrahydrofuran-2-yl)methyl)thio)ethyl)-3-(3-phenylpropyl)urea], for which the inhibition at 10 µM was -4% on PRMT8; 13% against PRMT1; 49% on PRMT4; 7% at PRMT6; 5% at PRMT3.

For the molecule `Nc1ncnc2c1ncn2[C@@H]1O[C@H](CSCCNC(=O)NCCc2ccccc2)[C@@H](O)[C@H]1O` [Compound 7c, 1-(2-((((2S,3S,4R,5R)-5-(6-amino-9H-purin-9-yl)-3,4-dihydroxytetrahydrofuran-2-yl)methyl)thio)ethyl)-3-phenethylurea], the inhibition at 10 µM at PRMT8 is -1%; against PRMT1, 8%; at PRMT4, 53%; at PRMT6 it was 22%; on PRMT3, 6%.

Consider `Nc1ncnc2c1ncn2[C@@H]1O[C@H](CSCCNC(=O)NCc2ccc3cnccc3c2)[C@@H](O)[C@H]1O` [Compound 7e], for which the inhibition at 10 µM was -2% at PRMT8; 6% against PRMT1; 30% on PRMT4; 9% on PRMT6; 8% against PRMT3.

As to `CCNC(=O)NCCSC[C@H]1O[C@@H](n2cnc3c(N)ncnc32)[C@H](O)[C@@H]1O` [Compound 7g, 1-(2-((((2S,3S,4R,5R)-5-(6-amino-9H-purin-9-yl)-3,4-dihydroxytetrahydrofuran-2-yl)methyl)thio)ethyl)-3-ethylurea], the inhibition at 10 µM on PRMT8 came to 14%; on PRMT1 it was 10%; on PRMT4, 27%; at PRMT6, 3%; on PRMT3, 4%.

Consider `Nc1ncnc2c1ncn2[C@@H]1O[C@H](CSCCNC(=O)NC2CCCCC2)[C@@H](O)[C@H]1O` [Compound 7i, 1-(2-((((2S,3S,4R,5R)-5-(6-amino-9H-purin-9-yl)-3,4-dihydroxytetrahydrofuran-2-yl)methyl)thio)ethyl)-3-cyclohexylurea], for which the inhibition at 10 µM on PRMT8 is -10%; on PRMT1 it was 6%; on PRMT4, 34%; on PRMT6 it was -12%; against PRMT3, 2%.

For the molecule `Nc1ncnc2c1ncn2[C@@H]1O[C@H](CSCCNC(=O)Nc2ccccc2Br)[C@@H](O)[C@H]1O` [Compound 7m], the inhibition at 10 µM at PRMT8 worked out at 13%; against PRMT1 it was 10%; at PRMT4 it was 81%; on PRMT6 it was 11%; on PRMT3, 55%.

For `Nc1ncnc2c1ncn2[C@@H]1O[C@H](CSCCCNC(=O)NCc2ccc3c(c2)OCO3)[C@@H](O)[C@H]1O` [Compound 7o], the inhibition at 10 µM on PRMT8 amounted to 7%; against PRMT1, 5%; at PRMT4, 42%; at PRMT6 it was 89%; at PRMT3 it was 5%.

In the case of `Nc1ncnc2c1ncn2[C@@H]1O[C@H](CSCCNCc2cccc(Br)c2)[C@@H](O)[C@H]1O` [Compound 9a], the inhibition at 10 µM was 47% at PRMT8, 11% on PRMT1, 58% at PRMT6 and 8% against PRMT3.

Regarding `N=C(NCCCN(CCNC(=O)NCc1ccccc1)C[C@H]1O[C@@H](n2cnc3c(N)ncnc32)[C@H](O)[C@@H]1O)NC1CCCC1` [YD1289], the “PRMT4 inhibition” value at PRMT4 is “selective and potent PRMT4 inhibitor”.

For `Nc1ncnc2c1ncn2[C@@H]1O[C@H](CN(CCCNCc2cccc(-c3ccc(Cl)cc3)c2)CCNC(=O)NCc2ccccc2)[C@@H](O)[C@H]1O` [YD1305], at PRMT4, the “PRMT4 inhibition” value is “potent and selective PRMT4 inhibitors”.

In the case of `Nc1ncnc2c1ncn2[C@@H]1O[C@H](CN(CCCNCc2cccc(Br)c2)CCNC(=O)NCc2ccccc2)[C@@H](O)[C@H]1O` [YD1349], the “PRMT4 inhibition” value at PRMT4 was “potent and selective PRMT4 inhibitors”.

On to `N=C(NCCCSCC1CC(n2ccc3c(NCCCc4ccccc4)ncnc32)C(O)C1O)Nc1cccc(Br)c1` (stereo not drawn) [YD1375], for which the “PRMT1 inhibition” value on PRMT1 was “inhibitory effect of YD1375 on PRMT1”.

For the origin of these results see patent publication US20260306527A1, “PRMT INHIBITOR COMPOUNDS AND THE USES THEREOF” (Purdue Research Foundation, priority 2023, published 2026).
